Laboratory results reported in paper PMC3618674 (Brain research, 2012).
Read-outs that look alike come from different tables or passages of the source. Blank lines part the entries; values can stand above or below the molecule they belong to.

Key:
L-DOPA methylation [1] = settings: rats; for effect on plasma 3-OMD levels: 400 mg/kg i.p. 2 h before L-DOPA/carbidopa 20/5 mg/kg; for effect on striatal 3-OMD levels / effect on striatal dopamine levels: 400 mg/kg i.p., striatum at 6 h after L-DOPA/carbidopa 20/5 mg/kg
[2] = test system: 6-hydroxydopamine-induced neuronal damage; assay: 6-hydroxydopamine-induced neuronal damage model; settings: data not shown
[3] = test system: HT22 mouse hippocampal neuronal cells; assay: Glutamate-induced oxidative cell death, MTT cell viability; format: cell-based; settings: 5 mM glutamate, 24 h, co-treatment
L-DOPA methylation [4] = format: in vivo, rat; settings: rats
NF-κB = assay: NF-κB-Luc reporter transcriptional activity in glutamate-treated HT22 cells; format: cell-based, mouse; settings: HT22 cells transfected with NF-κB-Luc; 5 mM glutamate, 40 μM (+)-catechin, 8 h
[5] = test system: HT22 mouse hippocampal neuronal cells; assay: Glutamate-induced intracellular ROS accumulation; format: cell-based; settings: 5 mM glutamate
L-DOPA methylation [6] = assay: Animal experiment III: L-DOPA methylation in dopamine-depleted; format: in vivo, rat
[7] = test system: kainic acid-induced hippocampal neurodegeneration; assay: Animal experiment IV: kainic acid-induced rat hippocampal injury; format: in vivo; settings: rats
in vivo = settings: rat, ip, 400 mg/kg
[8] = target: T1, human liver catechol-O-methyltransferase (COMT) (Homo sapiens, UniProt P21964); assay: in vitro O-methylation of L-DOPA catalyzed by human liver cytosolic COMT; format: biochemical
T1 sequence (P21964 1-221 isoform P21964-2): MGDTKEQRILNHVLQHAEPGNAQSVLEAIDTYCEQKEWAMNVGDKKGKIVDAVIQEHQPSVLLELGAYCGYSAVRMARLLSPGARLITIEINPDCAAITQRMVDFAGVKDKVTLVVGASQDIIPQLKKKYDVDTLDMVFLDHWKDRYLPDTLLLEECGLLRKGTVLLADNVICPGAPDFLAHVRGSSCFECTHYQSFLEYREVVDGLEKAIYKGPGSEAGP

[9] = test system: 6-hydroxydopamine-induced neurotoxicity; settings: ref Leaver et al., 2009; cited from earlier work
[10] = reserpinized rats, co-treatment with L-DOPA/carbidopa 20/20 mg/kg
[11] = rats, reserpine 5 mg/kg i.p. 18-20 h before

Compound: Oc1cc(O)c2c(c1)O[C@H](c1ccc(O)c(O)c1)[C@@H](O)C2 [(+)-catechin]
effect on plasma 3-OMD levels (L-DOPA methylation [1]): significantly reduced | effect on striatal 3-OMD levels (L-DOPA methylation [1]): significantly reduced | effect on striatal dopamine levels (L-DOPA methylation [1]): only slightly changed | protective effect in 6-hydroxydopamine-induced neuronal damage model [2]: did not show any appreciable protective effect | effect on glutamate-induced cell death (cell viability) [3]: abrogated cell death in a concentration-dependent manner | time required to reach maximal L-DOPA plasma concentration (L-DOPA methylation [4]; (+)-catechin 400 mg/kg 2 h before L-DOPA/carbidopa 20/20 mg/kg, vs control): modestly shifted to the right | effect on striatal 3-OMD levels (L-DOPA methylation [4]; L-DOPA/carbidopa 20/20 mg/kg): markedly reduced | effect on striatal dopamine levels (L-DOPA methylation [4]; L-DOPA/carbidopa 20/20 mg/kg): not significantly affected | effect on transcriptional activity of NF-κB (NF-κB): significantly attenuated | effect on glutamate-induced accumulation of intracellular ROS [5]: reduced | effect on striatal 3-OMD levels (L-DOPA methylation [6]; [10]): markedly reduced | effect on striatal dopamine levels (L-DOPA methylation [6]; [10]): restored to levels comparable to those in normal rats | kainic acid-induced increase in GFAP expression in astrocytes ([7]; (+)-catechin 400 mg/kg 30 min before i.c.v. kainic acid, 24 h, CA3): reduced | effect on kainic acid-induced seizure behavior ([7]; (+)-catechin 30 min before i.c.v. kainic acid): no appreciable behavioral differences

concentration at 30 min (in vivo): 88.6 ± 39.2 µM | IC50 [8]: 10.7 ± 6.7 µM
Compound: Oc1cc(O)c2c(c1)O[C@H](c1ccc(O)c(O)c1)[C@H](O)C2 [(−)-epicatechin]
effect on plasma 3-OMD levels (L-DOPA methylation [1]): did not have a similar effect | effect on striatal 3-OMD levels (L-DOPA methylation [1]): no significant change | effect on striatal dopamine levels (L-DOPA methylation [1]): no significant change

Compound: O=C(O[C@@H]1Cc2c(O)cc(O)cc2O[C@@H]1c1cc(O)c(O)c(O)c1)c1cc(O)c(O)c(O)c1 [EGCG, (−)-epigallocatechin-3-gallate]
effect in 6-hydroxydopamine-induced neurotoxicity model [9]: ineffective

concentration at 30 min (in vivo): 12.6 ± 0.1 µM | IC50 [8]: 1.9 ± 0.4 µM
Compound: O=c1c(O)c(-c2ccc(O)c(O)c2)oc2cc(O)cc(O)c12 [quercetin]
effect on plasma 3-OMD levels (L-DOPA methylation [1]): did not have a similar effect | effect on striatal 3-OMD levels (L-DOPA methylation [1]): no significant change | effect on striatal dopamine levels (L-DOPA methylation [1]): no significant change

Compound: COC(=O)[C@H]1[C@H]2C[C@@H]3c4[nH]c5cc(OC)ccc5c4CCN3C[C@H]2C[C@@H](OC(=O)c2cc(OC)c(OC)c(OC)c2)[C@@H]1OC [reserpine, reference compound]
decrease of striatal dopamine levels compared to normal control animals (L-DOPA methylation [6]; [11]): over 80% | striatal dopamine levels relative to non-reserpinized control rats (L-DOPA methylation [6]; [11]): approximately 20%
